Legend:
Format in all cases: in vivo
[1] = tested on: velvetleaf (Abutilon theophrasti); assay: Test G Pre-Emergence Protocol; conditions: Abutilon theophrasti, pre-emergence, 312 h, evaluated after 13 days; for pest or weed control at 15.625 g/ha: 15.625 g ai/ha; for pest or weed control at 15.625 g/ha / pest or weed control at 250 g/ha: read-out: Velvetleaf damage rating (100=total damage to plant; 0=no damage to plant); for pest or weed control at 62.5 g/ha: 62.5 g ai/ha, 100=total damage to plant, 0=no damage to plant, read-out: plant damage rating, Velvetleaf; for pest or weed control at 250 g/ha: 250 g ai/ha
Procedure, shortened: (§1)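 One day after sowing, pots are treated with a spray of test compound formulated in acetone/water 50:50 plus 0.5% Tween 20, giving 15.625, 62.5 or 250 g/ha. Evaluation on a 0–100 damage scale follows 13 days of glasshouse growth.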

[2] = tested on: barnyardgrass (Echinochloa crus-galli); assay: Test G Pre-Emergence Protocol; conditions: Echinochloa crus-galli, pre-emergence, 312 h, evaluated after 13 days; for pest or weed control at 15.625 g/ha: 15.625 g ai/ha, read-out: Barnyard grass damage rating (100=total damage to plant; 0=no damage to plant); for pest or weed control at 62.5 g/ha: 62.5 g ai/ha, 100=total damage to plant, 0=no damage to plant, read-out: plant damage rating, Barnyardgrass; for pest or weed control at 250 g/ha: 250 g ai/ha, read-out: Barnyardgrass damage rating (100=total damage to plant; 0=no damage to plant)
Procedure, shortened: as §1

[3] = tested on: giant foxtail (Setaria faberi); assay: Test G Pre-Emergence Protocol; conditions: Setaria faberi, pre-emergence, 312 h, evaluated after 13 days; for pest or weed control at 15.625 g/ha: 15.625 g ai/ha; for pest or weed control at 15.625 g/ha / pest or weed control at 250 g/ha: read-out: Foxtail, Giant damage rating (100=total damage to plant; 0=no damage to plant); for pest or weed control at 62.5 g/ha: 62.5 g ai/ha, 100=total damage to plant, 0=no damage to plant, read-out: plant damage rating, Foxtail, Giant; for pest or weed control at 250 g/ha: 250 g ai/ha
Procedure, shortened: as §1

[4] = tested on: ivy-leaved morning glory (Ipomoea hederacea); assay: Test G Pre-Emergence Protocol; conditions: Ipomoea, pre-emergence, 312 h, evaluated after 13 days; for pest or weed control at 15.625 g/ha: 15.625 g ai/ha, read-out: Morning-glory, Ivy-leaved damage rating (100=total damage to plant; 0=no damage to plant); for pest or weed control at 62.5 g/ha: 62.5 g ai/ha, 100=total damage to plant, 0=no damage to plant, read-out: plant damage rating, Morningglory, Ivy-leaved; for pest or weed control at 250 g/ha: 250 g ai/ha, read-out: Morningglory, Ivy-leaved damage rating (100=total damage to plant; 0=no damage to plant)
Procedure, shortened: as §1

corn (Zea mays) [5] = assay: Test G Pre-Emergence Protocol; conditions: Zea mays, pre-emergence, 312 h, evaluated after 13 days; for plant injury at 15.625 g/ha: 15.625 g ai/ha; for plant injury at 15.625 g/ha / plant injury at 250 g/ha: read-out: Corn damage rating (100=total damage to plant; 0=no damage to plant); for plant injury at 62.5 g/ha: 62.5 g ai/ha, 100=total damage to plant, 0=no damage to plant, read-out: plant damage rating, Corn; for plant injury at 250 g/ha: 250 g ai/ha
Procedure, shortened: as §1

[6] = tested on: redroot pigweed (Amaranthus retroflexus); assay: Test G Pre-Emergence Protocol; conditions: Amaranthus retroflexus, pre-emergence, 312 h, evaluated after 13 days; for pest or weed control at 15.625 g/ha: 15.625 g ai/ha; for pest or weed control at 15.625 g/ha / pest or weed control at 250 g/ha: read-out: Pigweed, Redroot damage rating (100=total damage to plant; 0=no damage to plant); for pest or weed control at 62.5 g/ha: 62.5 g ai/ha, 100=total damage to plant, 0=no damage to plant, read-out: plant damage rating, Pigweed, Redroot; for pest or weed control at 250 g/ha: 250 g ai/ha
Procedure, shortened: as §1

[7] = tested on: velvetleaf (Abutilon theophrasti); assay: Test G Post-Emergence Protocol; conditions: Abutilon theophrasti, post-emergence, 312 h; for pest or weed control at 15.625 g/ha: 15.625 g ai/ha, evaluated after 13 days (100=total damage to plant; 0=no damage to plant), read-out: Velvetleaf damage rating; for pest or weed control at 62.5 g/ha: 62.5 g ai/ha, read-out: Velvetleaf damage rating (100=total damage to plant; 0=no damage to plant); for pest or weed control at 62.5 g/ha / pest or weed control at 250 g/ha: evaluated after 13 days; for pest or weed control at 250 g/ha: 250 g ai/ha, read-out: damage to plant, Velvetleaf (100=total damage to plant; 0=no damage to plant)
Procedure, shortened: (§2)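 Eight days post-sowing, plants received a spray of test compound (acetone/water 50:50, 0.5% Tween 20) at 15.625, 62.5 or 250 g/ha. Glasshouse regime thereafter: 24/16 °C, 14 h light, 65% humidity. Assessment after 13 days on a 0–100 damage scale.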

[8] = tested on: barnyardgrass (Echinochloa crus-galli); assay: Test G Post-Emergence Protocol; conditions: Echinochloa crus-galli, post-emergence, 312 h; for pest or weed control at 15.625 g/ha: 15.625 g ai/ha, evaluated after 13 days (100=total damage to plant; 0=no damage to plant), read-out: Barnyardgrass damage rating; for pest or weed control at 62.5 g/ha: 62.5 g ai/ha, read-out: Barnyardgrass damage rating (100=total damage to plant; 0=no damage to plant); for pest or weed control at 62.5 g/ha / pest or weed control at 250 g/ha: evaluated after 13 days; for pest or weed control at 250 g/ha: 250 g ai/ha, read-out: damage to plant, Barnyardgrass (100=total damage to plant; 0=no damage to plant)
Procedure, shortened: as §2

[9] = tested on: giant foxtail (Setaria faberi); assay: Test G Post-Emergence Protocol; conditions: Setaria faberi, post-emergence, 312 h; for pest or weed control at 15.625 g/ha: 15.625 g ai/ha, evaluated after 13 days (100=total damage to plant; 0=no damage to plant), read-out: Foxtail, Giant damage rating; for pest or weed control at 62.5 g/ha: 62.5 g ai/ha, read-out: Foxtail, Giant damage rating (100=total damage to plant; 0=no damage to plant); for pest or weed control at 62.5 g/ha / pest or weed control at 250 g/ha: evaluated after 13 days; for pest or weed control at 250 g/ha: 250 g ai/ha, read-out: damage to plant, Foxtail, Giant (100=total damage to plant; 0=no damage to plant)
Procedure, shortened: as §2

[10] = tested on: ivy-leaved morning glory (Ipomoea hederacea); assay: Test G Post-Emergence Protocol; conditions: Ipomoea, post-emergence, 312 h; for pest or weed control at 15.625 g/ha: 15.625 g ai/ha, evaluated after 13 days (100=total damage to plant; 0=no damage to plant), read-out: Morningglory, Ivy-leaved damage rating; for pest or weed control at 62.5 g/ha: 62.5 g ai/ha, read-out: Morningglory, Ivy-leaved damage rating (100=total damage to plant; 0=no damage to plant); for pest or weed control at 62.5 g/ha / pest or weed control at 250 g/ha: evaluated after 13 days; for pest or weed control at 250 g/ha: 250 g ai/ha, read-out: damage to plant, Morningglory, Ivy-leaved (100=total damage to plant; 0=no damage to plant)
Procedure, shortened: as §2

corn (Zea mays) [11] = assay: Test G Post-Emergence Protocol; conditions: Zea mays, post-emergence, 312 h; for plant injury at 15.625 g/ha: 15.625 g ai/ha, evaluated after 13 days (100=total damage to plant; 0=no damage to plant), read-out: Corn damage rating; for plant injury at 62.5 g/ha: 62.5 g ai/ha, read-out: Corn damage rating (100=total damage to plant; 0=no damage to plant); for plant injury at 62.5 g/ha / plant injury at 250 g/ha: evaluated after 13 days; for plant injury at 250 g/ha: 250 g ai/ha, read-out: damage to plant, Corn (100=total damage to plant; 0=no damage to plant)
Procedure, shortened: as §2

[12] = tested on: redroot pigweed (Amaranthus retroflexus); assay: Test G Post-Emergence Protocol; conditions: Amaranthus retroflexus, post-emergence, 312 h; for pest or weed control at 15.625 g/ha: 15.625 g ai/ha, evaluated after 13 days (100=total damage to plant; 0=no damage to plant), read-out: Pigweed, Redroot damage rating; for pest or weed control at 62.5 g/ha: 62.5 g ai/ha, read-out: Pigweed, Redroot damage rating (100=total damage to plant; 0=no damage to plant); for pest or weed control at 62.5 g/ha / pest or weed control at 250 g/ha: evaluated after 13 days; for pest or weed control at 250 g/ha: 250 g ai/ha, read-out: damage to plant, Pigweed, Redroot (100=total damage to plant; 0=no damage to plant)
Procedure, shortened: as §2

Row | Structure (SMILES) | pest or weed control at 15.625 g/ha [1] | pest or weed control at 62.5 g/ha [1] | pest or weed control at 250 g/ha [1] | pest or weed control at 15.625 g/ha [2] | pest or weed control at 62.5 g/ha [2] | pest or weed control at 250 g/ha [2] | pest or weed control at 15.625 g/ha [3] | pest or weed control at 62.5 g/ha [3] | pest or weed control at 250 g/ha [3] | pest or weed control at 15.625 g/ha [4] | pest or weed control at 62.5 g/ha [4] | pest or weed control at 250 g/ha [4] | plant injury at 15.625 g/ha (corn (Zea mays) [5]) | plant injury at 62.5 g/ha (corn (Zea mays) [5]) | plant injury at 250 g/ha (corn (Zea mays) [5]) | pest or weed control at 15.625 g/ha [6] | pest or weed control at 62.5 g/ha [6] | pest or weed control at 250 g/ha [6] | pest or weed control at 15.625 g/ha [7] | pest or weed control at 62.5 g/ha [7] | further results
1 | CN1C[C@@H](c2cc(Cl)cc(C(F)(F)F)c2)[C@H](C(=O)Nc2ccccc2F)C1=O (racemic) [Compound 1414] | 0% | 0% | 0% | 20% | 70% | 80% | 60% | 80% | 80% | 0% | 0% | 20% | 0% | 20% | 50% | 0% | 0% | 0% | 0% | 0% | pest or weed control at 250 g/ha [7]: 0%; pest or weed control at 15.625 g/ha [8]: 50%; pest or weed control at 62.5 g/ha [8]: 50%; pest or weed control at 250 g/ha [8]: 60%; pest or weed control at 15.625 g/ha [9]: 70%; pest or weed control at 62.5 g/ha [9]: 70%; pest or weed control at 250 g/ha [9]: 80%; pest or weed control at 15.625 g/ha [10]: 0%; pest or weed control at 62.5 g/ha [10]: 30%; pest or weed control at 250 g/ha [10]: 30%; plant injury at 15.625 g/ha (corn (Zea mays) [11]): 20%; plant injury at 62.5 g/ha (corn (Zea mays) [11]): 50%; plant injury at 250 g/ha (corn (Zea mays) [11]): 80%; pest or weed control at 15.625 g/ha [12]: 10%; pest or weed control at 62.5 g/ha [12]: 0%; pest or weed control at 250 g/ha [12]: 30%
2 | Cc1cc(C(F)(F)F)ccc1[C@@H]1CN(C)C(=O)[C@H]1C(=O)Nc1ccccc1F (racemic) [Compound 1415] | 0% | 0% | 0% | 10% | 50% | 70% | 10% | 70% | 80% | 0% | 0% | 0% | 0% | 0% | 0% | 10% | 0% | 10% | 10% | 0% | pest or weed control at 250 g/ha [7]: 20%; pest or weed control at 15.625 g/ha [8]: 20%; pest or weed control at 62.5 g/ha [8]: 30%; pest or weed control at 250 g/ha [8]: 60%; pest or weed control at 15.625 g/ha [9]: 20%; pest or weed control at 62.5 g/ha [9]: 60%; pest or weed control at 250 g/ha [9]: 70%; pest or weed control at 15.625 g/ha [10]: 10%; pest or weed control at 62.5 g/ha [10]: 10%; pest or weed control at 250 g/ha [10]: 20%; plant injury at 15.625 g/ha (corn (Zea mays) [11]): 20%; plant injury at 62.5 g/ha (corn (Zea mays) [11]): 10%; plant injury at 250 g/ha (corn (Zea mays) [11]): 20%; pest or weed control at 15.625 g/ha [12]: 10%; pest or weed control at 62.5 g/ha [12]: 10%; pest or weed control at 250 g/ha [12]: 30%
